PubChem BioAssay AID248 (DTP/NCI, 2004)
Where “and” joins values, the source holds several entries; their conditions need not be identical. Equal entries are not always repeated. Inconclusive results and toxic doses are left out. Rule as the data show it: active = T/C of 150% or more; inactive = T/C below 125%.

Tested on: L1210 leukemia ip in BDF1 mice, survival T/C
Assay: NCI In Vivo Anticancer Drug Screen. Data for tumor model L1210 Leukemia (intraperitoneal) in B6D2F1 (BDF1) mice
Conditions: endpoint: mean survival time, higher = longer survival
In short: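 Each compound was tested against a transplantable tumor grown in mice. The endpoint was survival, with treated animals benchmarked against vehicle controls as a simple ratio.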

[1] = dose: 100.0 mg/kg/injection, schedule: Q01DX009 (ip), vehicle: saline with Tween-80
[2] = dose: 200.0 mg/kg/injection, schedule: Q01DX009 (ip), vehicle: saline with Tween-80
[3] = dose: 400.0 mg/kg/injection, schedule: Q01DX009 (ip), vehicle: saline with Tween-80
[4] = dose: 200.0 mg/kg/injection, schedule: Q04DX003 (ip), vehicle: saline with Tween-80
[5] = dose: 100.0 mg/kg/injection, schedule: Q01DX009 (ip), vehicle: saline
[6] = dose: 100.0 mg/kg/injection, schedule: Q04DX003 (ip), vehicle: Klucel (hydroxypropylcellulose) (HPC)
[7] = dose: 200.0 mg/kg/injection, schedule: Q01DX009 (ip), vehicle: saline
[8] = dose: 200.0 mg/kg/injection, schedule: Q04DX003 (ip), vehicle: Klucel (hydroxypropylcellulose) (HPC)
[9] = dose: 400.0 mg/kg/injection, schedule: Q01DX009 (ip), vehicle: saline
[10] = dose: 400.0 mg/kg/injection, schedule: Q04DX003 (ip), vehicle: Klucel (hydroxypropylcellulose) (HPC)
[11] = dose: 100.0 mg/kg/injection, schedule: Q01DX009 (ip), vehicle: Klucel (hydroxypropylcellulose) (HPC)
[12] = dose: 100.0 mg/kg/injection, schedule: Q04DX002 (ip), vehicle: Klucel (hydroxypropylcellulose) (HPC)
[13] = dose: 100.0 mg/kg/injection, schedule: Q04DX003 (ip), vehicle: saline
[14] = dose: 200.0 mg/kg/injection, schedule: Q01DX009 (ip), vehicle: Klucel (hydroxypropylcellulose) (HPC)
[15] = dose: 200.0 mg/kg/injection, schedule: Q04DX002 (ip), vehicle: Klucel (hydroxypropylcellulose) (HPC)
[16] = dose: 200.0 mg/kg/injection, schedule: Q04DX003 (ip), vehicle: saline
[17] = dose: 400.0 mg/kg/injection, schedule: Q04DX002 (ip), vehicle: Klucel (hydroxypropylcellulose) (HPC)
[18] = dose: 400.0 mg/kg/injection, schedule: Q04DX003 (ip), vehicle: saline
[19] = dose: 100.0 mg/kg/injection, schedule: Q01DX001 (ip), vehicle: other
[20] = dose: 200.0 mg/kg/injection, schedule: Q01DX001 (ip), vehicle: other
[21] = dose: 400.0 mg/kg/injection, schedule: Q01DX001 (ip), vehicle: other
[22] = dose: 100.0 mg/kg/injection, schedule: Q04DX002 (ip), vehicle: saline
[23] = dose: 200.0 mg/kg/injection, schedule: Q04DX002 (ip), vehicle: saline
[24] = dose: 400.0 mg/kg/injection, schedule: Q01DX009 (ip), vehicle: Klucel (hydroxypropylcellulose) (HPC)
[25] = dose: 100.0 mg/kg/injection, schedule: Q01DX001 (ip), vehicle: saline
[26] = dose: 200.0 mg/kg/injection, schedule: Q01DX001 (ip), vehicle: saline
[27] = dose: 400.0 mg/kg/injection, schedule: Q01DX001 (ip), vehicle: saline

Measured: T/C

CC12CCC(=O)CC1CCC1C2CCC2(C)C(C(=O)O)CCC12 (stereo not given)
inactive: dose: 25.0 mg/kg/injection, schedule: Q04DX002 (ip), vehicle: saline with Tween-80 99 % of control | dose: 50.0 mg/kg/injection, schedule: Q04DX002 (ip), vehicle: saline with Tween-80 96 % of control | dose: 100.0 mg/kg/injection, schedule: Q04DX002 (ip), vehicle: saline with Tween-80 108 % of control

Cc1ccc(NC(=O)Nc2ccccc2C(F)(F)F)cc1NC(=O)Nc1ccccc1C(F)(F)F
inactive: [1] 92 % of control | [2] 90 % of control | [3] 92 % of control

COC(=O)C1CC(C2c3ccccc3-c3ccccc32)CCC1N (stereo not given)
inactive: [4] 100 % of control

O=S(=O)(O)Cc1ccccc1O
inactive: [1] 96 % of control | [2] 102 % of control | [3] 93 % of control

COC1OC(CN(CCOS(C)(=O)=O)S(C)(=O)=O)C2OC(C)(C)OC12 (stereo not given)
inactive: dose: 50.0 mg/kg/injection, schedule: Q01DX009 (ip), vehicle: saline 95 % of control | dose: 50.0 mg/kg/injection, schedule: Q04DX003 (ip), vehicle: Klucel (hydroxypropylcellulose) (HPC) 116 % of control | [5] 97 % of control | [6] 102 % of control | [7] 95 % of control | [8] 121 % of control | [9] 95 % of control | [10] 104 % of control

CC(C)C(=O)Nc1ccc([N+](=O)[O-])c(C(F)(F)F)c1
inactive: dose: 100.0 mg/kg/injection, schedule: Q01DX001 (ip), vehicle: Klucel (hydroxypropylcellulose) (HPC) 102 % of control | [11] 93 % of control and 109 % of control | [5] 105 % of control | [12] 97 % of control and 92 % of control | [6] 100 % of control | [13] 108 % of control | dose: 200.0 mg/kg/injection, schedule: Q01DX001 (ip), vehicle: Klucel (hydroxypropylcellulose) (HPC) 102 % of control | [14] 100 % of control and 103 % of control | [7] 92 % of control | [15] 100 % of control and 102 % of control | [8] 109 % of control | [16] 101 % of control | dose: 400.0 mg/kg/injection, schedule: Q01DX001 (ip), vehicle: Klucel (hydroxypropylcellulose) (HPC) 110 % of control | [17] 100 % of control and 113 % of control | [10] 92 % of control | [18] 88 % of control

NC(CSCCc1ccc([N+](=O)[O-])cc1)C(=O)O (stereo not given)
inactive: [6] 105 % of control | [8] 96 % of control | [10] 93 % of control

CCCCCCCCSCCO
inactive: dose: 12.0 mg/kg/injection, schedule: Q01DX009 (ip), vehicle: saline with Tween-80 104 % of control | dose: 25.0 mg/kg/injection, schedule: Q01DX009 (ip), vehicle: saline with Tween-80 101 % of control | dose: 50.0 mg/kg/injection, schedule: Q01DX009 (ip), vehicle: saline with Tween-80 95 % of control | dose: 50.0 mg/kg/injection, schedule: Q04DX003 (ip), vehicle: saline with Tween-80 98 % of control | dose: 100.0 mg/kg/injection, schedule: Q04DX003 (ip), vehicle: saline with Tween-80 96 % of control | [4] 94 % of control | dose: 400.0 mg/kg/injection, schedule: Q04DX003 (ip), vehicle: saline with Tween-80 98 % of control

CC(C)CC(N)C(=O)CCl (stereo not given)
inactive: dose: 25.0 mg/kg/injection, schedule: Q04DX002 (ip), vehicle: Klucel (hydroxypropylcellulose) (HPC) 108 % of control | dose: 50.0 mg/kg/injection, schedule: Q04DX002 (ip), vehicle: Klucel (hydroxypropylcellulose) (HPC) 102 % of control

O=C(Nc1ccc(C(=O)c2ccccc2)cc1)c1ccc(C(=O)Nc2ccc(C(=O)c3ccccc3)cc2)cc1
inactive: [19] 93 % of control | [20] 86 % of control | [21] 89 % of control

O=C1C=CC(=O)N1c1ccccc1Cl (tested in a mixture with another compound)
inactive: dose: 100.0 mg/kg/injection, schedule: Q04DX003 (ip), vehicle: acetone 107 % of control | dose: 200.0 mg/kg/injection, schedule: Q04DX003 (ip), vehicle: acetone 100 % of control | dose: 400.0 mg/kg/injection, schedule: Q04DX003 (ip), vehicle: acetone 96 % of control

CCn1c(=O)oc2ccccc2c1=S
inactive: [13] 100 % of control | [16] 96 % of control

ClC12CCC(CC1)C2
inactive: [22] 96 % of control | [23] 104 % of control | dose: 400.0 mg/kg/injection, schedule: Q04DX002 (ip), vehicle: saline 93 % of control

Cc1cc(=O)c(O)co1
inactive: [11] 98 % of control | [6] 101 % of control | [14] 93 % of control | [8] 101 % of control | [24] 93 % of control | [10] 101 % of control

CCCCCCCCCCCCCC(C)NCc1ccccc1 (stereo not given)
inactive: dose: 50.0 mg/kg/injection, schedule: Q01DX001 (ip), vehicle: saline 97 % of control | [25] 88 % of control

CC12CCC3(CC1CCC1OC12)OCCO3 (stereo not given)
inactive: dose: 100.0 mg/kg/injection, schedule: Q01DX001 (ip), vehicle: carboxymethylcellulose (CMC) 103 % of control | dose: 200.0 mg/kg/injection, schedule: Q01DX001 (ip), vehicle: carboxymethylcellulose (CMC) 100 % of control | dose: 400.0 mg/kg/injection, schedule: Q01DX001 (ip), vehicle: carboxymethylcellulose (CMC) 97 % of control

CN(C)CCC(=O)O
inactive: [5] 92 % of control | dose: 100.0 mg/kg/injection, schedule: Q04DX003 (ip), vehicle: saline sonified 108 % of control | [7] 97 % of control | dose: 200.0 mg/kg/injection, schedule: Q04DX003 (ip), vehicle: saline sonified 105 % of control | [9] 94 % of control | dose: 400.0 mg/kg/injection, schedule: Q04DX003 (ip), vehicle: saline sonified 95 % of control

CC(C)(C)C1CCC(S(=O)(=O)c2ccccc2)C(Cl)C1 (stereo not given)
inactive: [11] 102 % of control | [13] 102 % of control | [14] 104 % of control | [16] 96 % of control | [24] 104 % of control | [18] 93 % of control

COC(=O)NS(=O)(=O)OC
inactive: [22] 103 % of control | [23] 110 % of control

CCCCCCCCCC(=O)Nc1ccccc1CC
inactive: dose: 100.0 mg/kg/injection, schedule: Q04DX002 (ip), vehicle: other 116 % of control | dose: 200.0 mg/kg/injection, schedule: Q04DX002 (ip), vehicle: other 105 % of control | dose: 400.0 mg/kg/injection, schedule: Q04DX002 (ip), vehicle: other 101 % of control

Cc1ccc(N(C)C(=O)c2ccccc2S)cc1
inactive: [25] 105 % of control | [26] 105 % of control | [27] 109 % of control

CCCCSC(N)=O
inactive: [1] 103 % of control | [12] 94 % of control | [2] 105 % of control | [15] 97 % of control | [3] 119 % of control | [17] 90 % of control

Cc1ccc([N+](=O)[O-])cc1
inactive: [12] 103 % of control | [15] 103 % of control | [17] 95 % of control

CCOC(=O)c1ccc(NC(=O)Nc2cccc(C(F)(F)F)c2)cc1
inactive: [11] 92 % of control | [14] 90 % of control

C=C(COc1ccc(Cl)cc1)COc1ccc(Cl)cc1
inactive: dose: 12.5 mg/kg/injection, schedule: Q04DX002 (ip), vehicle: other 115 % of control and 117 % of control | dose: 50.0 mg/kg/injection, schedule: Q04DX003 (ip), vehicle: other 98 % of control and 107 % of control | [19] 95 % of control and 99 % of control | dose: 100.0 mg/kg/injection, schedule: Q04DX003 (ip), vehicle: other 96 % of control and 113 % of control | [20] 96 % of control and 98 % of control | dose: 200.0 mg/kg/injection, schedule: Q04DX003 (ip), vehicle: other 93 % of control and 106 % of control | [21] 91 % of control | dose: 400.0 mg/kg/injection, schedule: Q04DX003 (ip), vehicle: other 95 % of control and 113 % of control

O=[N+]([O-])c1ccc(N=C(Cl)N(c2ccccc2)c2ccccc2)cc1
inactive: [25] 101 % of control | [26] 109 % of control | [27] 109 % of control
